According to ChEMBL document CHEMBL3991601, “The target landscape of clinical kinase drugs” (Science, 2017):
The source made the active and inactive calls.

Columns and labels:
[1] = target: Serine/threonine-protein kinase MRCK gamma (Homo sapiens, UniProt Q6DT37)
[2] = target: Cyclin-dependent kinase 3 (Homo sapiens, UniProt Q00526)
[3] = target: T1, ATP-dependent RNA helicase DDX1 (Homo sapiens, UniProt Q92499)
T1 sequence (Q92499 whole entry): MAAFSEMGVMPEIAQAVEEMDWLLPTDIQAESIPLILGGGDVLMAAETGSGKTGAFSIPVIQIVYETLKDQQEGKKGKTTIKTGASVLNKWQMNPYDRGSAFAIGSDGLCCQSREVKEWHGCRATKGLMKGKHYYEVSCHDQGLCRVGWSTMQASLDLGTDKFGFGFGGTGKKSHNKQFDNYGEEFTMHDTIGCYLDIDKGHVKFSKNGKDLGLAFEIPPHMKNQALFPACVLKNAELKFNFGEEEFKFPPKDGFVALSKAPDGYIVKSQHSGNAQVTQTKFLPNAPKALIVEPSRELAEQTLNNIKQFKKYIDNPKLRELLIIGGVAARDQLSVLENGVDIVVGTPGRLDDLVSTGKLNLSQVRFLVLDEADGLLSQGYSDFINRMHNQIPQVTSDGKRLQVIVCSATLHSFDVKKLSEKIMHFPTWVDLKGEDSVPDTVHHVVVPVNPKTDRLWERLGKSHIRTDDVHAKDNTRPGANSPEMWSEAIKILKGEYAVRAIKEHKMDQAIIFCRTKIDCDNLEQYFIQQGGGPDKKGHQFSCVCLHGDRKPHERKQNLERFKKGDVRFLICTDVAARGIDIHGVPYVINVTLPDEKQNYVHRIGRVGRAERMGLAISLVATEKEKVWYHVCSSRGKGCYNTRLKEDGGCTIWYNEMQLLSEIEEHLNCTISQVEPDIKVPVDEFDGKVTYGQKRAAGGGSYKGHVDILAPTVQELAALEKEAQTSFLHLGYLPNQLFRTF

Ephrin type-B receptor 4 = target: T2, Ephrin type-B receptor 4 (Homo sapiens, UniProt P54760)
T2 sequence (P54760 whole entry): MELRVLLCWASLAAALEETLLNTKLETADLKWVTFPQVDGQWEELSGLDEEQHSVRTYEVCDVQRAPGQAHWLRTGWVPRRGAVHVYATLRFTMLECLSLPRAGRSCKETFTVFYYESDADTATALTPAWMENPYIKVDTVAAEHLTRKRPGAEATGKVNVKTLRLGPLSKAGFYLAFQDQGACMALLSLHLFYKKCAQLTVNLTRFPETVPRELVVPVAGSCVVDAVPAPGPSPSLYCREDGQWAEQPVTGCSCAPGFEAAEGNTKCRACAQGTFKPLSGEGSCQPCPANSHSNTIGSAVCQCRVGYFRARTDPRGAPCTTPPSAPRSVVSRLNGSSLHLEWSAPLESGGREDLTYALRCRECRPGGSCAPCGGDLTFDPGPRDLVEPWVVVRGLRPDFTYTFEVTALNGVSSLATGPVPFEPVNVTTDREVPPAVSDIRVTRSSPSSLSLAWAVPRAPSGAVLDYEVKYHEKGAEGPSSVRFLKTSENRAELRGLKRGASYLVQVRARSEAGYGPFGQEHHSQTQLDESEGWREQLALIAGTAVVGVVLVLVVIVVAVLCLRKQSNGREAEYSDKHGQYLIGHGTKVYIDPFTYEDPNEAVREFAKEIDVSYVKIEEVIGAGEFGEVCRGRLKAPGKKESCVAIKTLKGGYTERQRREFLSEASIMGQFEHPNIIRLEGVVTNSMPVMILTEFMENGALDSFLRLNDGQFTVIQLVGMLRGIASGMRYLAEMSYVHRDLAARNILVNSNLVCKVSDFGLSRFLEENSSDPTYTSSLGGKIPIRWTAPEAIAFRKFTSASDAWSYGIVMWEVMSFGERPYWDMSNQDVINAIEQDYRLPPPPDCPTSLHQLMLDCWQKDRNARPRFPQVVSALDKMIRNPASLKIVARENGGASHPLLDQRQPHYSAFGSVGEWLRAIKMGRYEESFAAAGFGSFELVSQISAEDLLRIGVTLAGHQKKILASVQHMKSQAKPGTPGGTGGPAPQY

[4] = target: T3, Membrane-associated tyrosine- and threonine-specific cdc2-inhibitory kinase (Homo sapiens, UniProt Q99640)
T3 sequence (Q99640 whole entry): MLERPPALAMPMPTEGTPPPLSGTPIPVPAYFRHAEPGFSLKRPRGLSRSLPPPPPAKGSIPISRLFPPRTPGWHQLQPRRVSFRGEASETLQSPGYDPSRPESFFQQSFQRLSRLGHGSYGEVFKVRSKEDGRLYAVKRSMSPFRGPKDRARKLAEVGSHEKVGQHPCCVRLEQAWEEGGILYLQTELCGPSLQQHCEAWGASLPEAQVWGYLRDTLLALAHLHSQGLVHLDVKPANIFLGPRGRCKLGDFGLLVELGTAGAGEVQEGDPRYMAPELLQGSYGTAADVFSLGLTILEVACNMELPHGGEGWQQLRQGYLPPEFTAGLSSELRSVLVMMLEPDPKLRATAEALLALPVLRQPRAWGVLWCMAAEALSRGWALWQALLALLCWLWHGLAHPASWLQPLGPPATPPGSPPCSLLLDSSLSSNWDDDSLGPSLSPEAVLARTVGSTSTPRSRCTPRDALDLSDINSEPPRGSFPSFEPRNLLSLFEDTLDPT

[5] = target: U5 small nuclear ribonucleoprotein 200 kDa helicase (Homo sapiens, UniProt O75643)
Chain of U5 small nuclear ribonucleoprotein 200 kDa helicase (O75643 whole entry): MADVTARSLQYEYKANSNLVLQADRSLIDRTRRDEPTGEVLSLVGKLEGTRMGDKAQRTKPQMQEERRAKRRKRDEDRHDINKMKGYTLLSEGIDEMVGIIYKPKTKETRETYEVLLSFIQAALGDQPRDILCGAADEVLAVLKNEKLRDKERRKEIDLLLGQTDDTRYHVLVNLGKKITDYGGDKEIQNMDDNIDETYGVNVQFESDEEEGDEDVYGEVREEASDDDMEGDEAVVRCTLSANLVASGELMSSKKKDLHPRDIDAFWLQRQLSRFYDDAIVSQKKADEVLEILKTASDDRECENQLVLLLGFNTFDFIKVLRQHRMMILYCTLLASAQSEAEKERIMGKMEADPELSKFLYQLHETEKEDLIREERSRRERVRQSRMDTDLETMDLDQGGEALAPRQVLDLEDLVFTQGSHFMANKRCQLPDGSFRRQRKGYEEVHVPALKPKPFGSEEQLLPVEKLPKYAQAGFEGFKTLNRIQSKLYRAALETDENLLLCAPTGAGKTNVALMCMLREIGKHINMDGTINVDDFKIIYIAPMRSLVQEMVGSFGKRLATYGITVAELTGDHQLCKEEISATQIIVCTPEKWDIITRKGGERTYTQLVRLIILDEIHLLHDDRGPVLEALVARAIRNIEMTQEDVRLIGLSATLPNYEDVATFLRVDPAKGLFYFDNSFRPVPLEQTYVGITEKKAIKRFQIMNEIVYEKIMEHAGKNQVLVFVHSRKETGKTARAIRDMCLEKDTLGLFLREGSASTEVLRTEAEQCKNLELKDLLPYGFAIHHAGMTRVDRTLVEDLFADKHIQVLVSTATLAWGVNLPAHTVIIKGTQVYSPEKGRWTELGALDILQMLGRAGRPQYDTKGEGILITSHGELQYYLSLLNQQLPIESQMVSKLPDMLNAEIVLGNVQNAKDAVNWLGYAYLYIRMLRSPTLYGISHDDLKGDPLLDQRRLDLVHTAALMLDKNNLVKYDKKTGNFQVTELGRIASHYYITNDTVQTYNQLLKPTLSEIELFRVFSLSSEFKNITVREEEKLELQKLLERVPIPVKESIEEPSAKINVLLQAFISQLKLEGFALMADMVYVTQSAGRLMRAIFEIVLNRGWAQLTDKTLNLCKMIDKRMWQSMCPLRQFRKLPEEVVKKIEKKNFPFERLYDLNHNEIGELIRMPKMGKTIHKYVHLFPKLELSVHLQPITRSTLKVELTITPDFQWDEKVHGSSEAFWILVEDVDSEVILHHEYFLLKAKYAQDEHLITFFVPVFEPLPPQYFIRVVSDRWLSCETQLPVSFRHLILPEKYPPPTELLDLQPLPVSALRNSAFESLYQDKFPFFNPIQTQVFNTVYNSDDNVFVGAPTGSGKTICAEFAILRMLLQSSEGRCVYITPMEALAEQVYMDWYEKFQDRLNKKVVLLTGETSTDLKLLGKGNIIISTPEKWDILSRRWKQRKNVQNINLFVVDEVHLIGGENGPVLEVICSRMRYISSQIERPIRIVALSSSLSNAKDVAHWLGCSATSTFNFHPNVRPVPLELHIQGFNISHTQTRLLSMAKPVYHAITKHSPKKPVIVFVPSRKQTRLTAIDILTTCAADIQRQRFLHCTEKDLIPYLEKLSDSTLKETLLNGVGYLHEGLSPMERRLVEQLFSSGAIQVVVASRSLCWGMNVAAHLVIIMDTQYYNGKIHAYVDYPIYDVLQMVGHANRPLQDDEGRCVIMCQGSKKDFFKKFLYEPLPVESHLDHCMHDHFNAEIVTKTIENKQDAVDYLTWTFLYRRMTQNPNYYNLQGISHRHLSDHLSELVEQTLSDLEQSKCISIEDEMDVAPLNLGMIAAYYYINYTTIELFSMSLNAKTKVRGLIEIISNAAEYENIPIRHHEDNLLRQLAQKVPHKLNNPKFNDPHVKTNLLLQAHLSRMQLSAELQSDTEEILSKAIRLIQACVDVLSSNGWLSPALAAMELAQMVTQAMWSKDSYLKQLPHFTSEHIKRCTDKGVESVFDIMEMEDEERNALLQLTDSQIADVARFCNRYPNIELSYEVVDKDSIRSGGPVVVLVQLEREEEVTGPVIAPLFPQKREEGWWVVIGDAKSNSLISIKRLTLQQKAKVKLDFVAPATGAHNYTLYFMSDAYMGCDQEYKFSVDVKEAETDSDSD

TGF-beta receptor type-2 = TGF-beta receptor type-2 (Homo sapiens, UniProt P37173)
Chain of TGF-beta receptor type-2 (P37173 whole entry): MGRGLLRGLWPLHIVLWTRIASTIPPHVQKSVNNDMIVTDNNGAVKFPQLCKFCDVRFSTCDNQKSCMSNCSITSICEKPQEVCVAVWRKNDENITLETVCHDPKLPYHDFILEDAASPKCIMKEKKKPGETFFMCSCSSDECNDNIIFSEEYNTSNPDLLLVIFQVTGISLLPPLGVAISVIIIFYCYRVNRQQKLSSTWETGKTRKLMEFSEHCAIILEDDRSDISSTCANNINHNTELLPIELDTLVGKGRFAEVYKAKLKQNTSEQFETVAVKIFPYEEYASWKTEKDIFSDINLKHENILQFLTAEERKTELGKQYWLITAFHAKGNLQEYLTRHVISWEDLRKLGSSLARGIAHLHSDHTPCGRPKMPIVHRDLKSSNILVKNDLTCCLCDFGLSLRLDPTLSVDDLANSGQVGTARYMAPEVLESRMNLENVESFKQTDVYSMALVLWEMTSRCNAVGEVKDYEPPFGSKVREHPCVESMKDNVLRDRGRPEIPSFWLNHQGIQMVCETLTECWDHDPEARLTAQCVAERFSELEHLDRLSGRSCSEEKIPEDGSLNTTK
Further: in the data inactive means no Kd found up to 30 µM.

Chain of Serine/threonine-protein kinase MRCK gamma (Q6DT37 whole entry): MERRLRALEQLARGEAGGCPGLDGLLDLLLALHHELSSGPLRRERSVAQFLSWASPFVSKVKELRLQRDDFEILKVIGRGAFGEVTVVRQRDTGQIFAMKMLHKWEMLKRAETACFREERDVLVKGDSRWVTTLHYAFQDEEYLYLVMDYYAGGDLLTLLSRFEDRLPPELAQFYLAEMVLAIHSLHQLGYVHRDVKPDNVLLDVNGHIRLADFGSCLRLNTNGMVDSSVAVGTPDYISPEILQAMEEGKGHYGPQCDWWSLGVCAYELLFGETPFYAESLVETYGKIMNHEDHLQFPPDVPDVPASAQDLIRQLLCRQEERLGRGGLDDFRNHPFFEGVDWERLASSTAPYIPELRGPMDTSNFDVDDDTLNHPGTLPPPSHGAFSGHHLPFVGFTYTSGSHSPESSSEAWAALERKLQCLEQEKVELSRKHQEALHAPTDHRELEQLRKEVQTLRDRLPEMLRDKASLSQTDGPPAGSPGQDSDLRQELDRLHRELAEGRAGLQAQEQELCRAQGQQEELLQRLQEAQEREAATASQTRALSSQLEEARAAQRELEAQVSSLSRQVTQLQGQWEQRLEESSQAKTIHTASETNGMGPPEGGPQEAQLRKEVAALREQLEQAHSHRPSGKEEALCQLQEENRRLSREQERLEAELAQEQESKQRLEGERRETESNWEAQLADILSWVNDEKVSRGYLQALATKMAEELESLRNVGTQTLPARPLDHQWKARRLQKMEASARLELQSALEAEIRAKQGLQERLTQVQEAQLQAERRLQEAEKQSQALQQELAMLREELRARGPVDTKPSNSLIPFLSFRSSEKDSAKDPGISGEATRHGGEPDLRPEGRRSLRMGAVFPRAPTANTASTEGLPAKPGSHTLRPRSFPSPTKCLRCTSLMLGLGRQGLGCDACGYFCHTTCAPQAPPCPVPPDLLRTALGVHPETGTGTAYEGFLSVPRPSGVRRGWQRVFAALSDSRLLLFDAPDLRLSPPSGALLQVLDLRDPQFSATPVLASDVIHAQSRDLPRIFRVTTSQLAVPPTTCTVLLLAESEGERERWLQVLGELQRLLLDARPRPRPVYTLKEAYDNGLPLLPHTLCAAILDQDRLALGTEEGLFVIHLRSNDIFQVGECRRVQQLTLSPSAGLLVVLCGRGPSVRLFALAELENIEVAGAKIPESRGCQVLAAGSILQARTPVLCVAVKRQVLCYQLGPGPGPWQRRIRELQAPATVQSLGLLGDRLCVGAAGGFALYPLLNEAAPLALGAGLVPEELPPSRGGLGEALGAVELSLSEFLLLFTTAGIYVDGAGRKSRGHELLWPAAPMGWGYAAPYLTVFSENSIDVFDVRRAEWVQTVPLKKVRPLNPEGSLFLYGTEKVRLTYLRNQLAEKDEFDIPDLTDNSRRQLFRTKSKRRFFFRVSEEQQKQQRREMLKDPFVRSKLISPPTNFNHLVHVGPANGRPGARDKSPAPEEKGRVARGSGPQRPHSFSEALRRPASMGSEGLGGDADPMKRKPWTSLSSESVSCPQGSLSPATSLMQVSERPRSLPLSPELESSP
Chain of Cyclin-dependent kinase 3 (Q00526 whole entry): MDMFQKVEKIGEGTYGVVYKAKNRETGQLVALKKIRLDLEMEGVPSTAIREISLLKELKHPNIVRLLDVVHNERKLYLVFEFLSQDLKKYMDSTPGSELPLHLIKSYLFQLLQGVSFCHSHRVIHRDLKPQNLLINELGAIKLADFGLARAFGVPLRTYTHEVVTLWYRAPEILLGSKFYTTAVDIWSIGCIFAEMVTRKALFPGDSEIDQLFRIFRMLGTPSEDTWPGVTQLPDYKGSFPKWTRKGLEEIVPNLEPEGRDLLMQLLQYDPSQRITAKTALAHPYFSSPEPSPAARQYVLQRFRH

Row | Structure (SMILES) | Kd [1] | Kd [2] | Kd [3] | Kd (Ephrin type-B receptor 4) | Kd [4] | Kd [5] | Kd (TGF-beta receptor type-2)
1 | O=C(Cc1ccc(-c2ccc(OCCN3CCOCC3)cc2)cn1)NCc1ccccc1 [TIRBANIBULIN] | > 30 µM (inactive) | > 30 µM (inactive) | > 30 µM (inactive) | > 30 µM (inactive) | > 30 µM (inactive) | > 30 µM (inactive) | > 30 µM (inactive)
2 | O=C1NC(=O)[C@@H](c2cn3c4c(cccc24)CCC3)[C@@H]1c1c[nH]c2ccccc12 [TIVANTINIB] | > 30 µM (inactive) | > 30 µM (inactive) | > 30 µM (inactive) | > 30 µM (inactive) | > 30 µM (inactive) | > 30 µM (inactive) | > 30 µM (inactive)
3 | Cc1cc(Nc2ncnc3ccc(NC4=NC(C)(C)CO4)cc23)ccc1Oc1ccn2ncnc2c1 [TUCATINIB] | > 30 µM (inactive) | > 30 µM (inactive) | > 30 µM (inactive) | > 30 µM (inactive) | > 30 µM (inactive) | > 30 µM (inactive) | > 30 µM (inactive)

Results, then the molecule that gave them:

Row | Kd [1] | Kd [2] | Kd [3] | Kd (Ephrin type-B receptor 4) | Kd [4] | Kd [5] | Kd (TGF-beta receptor type-2) | Structure (SMILES)
4 | > 30 µM (inactive) | > 30 µM (inactive) | > 30 µM (inactive) | 9.43 µM (active) | > 30 µM (inactive) | > 30 µM (inactive) | 1.64 µM | C[C@@H](NC(=O)c1ncnc(N)c1Cl)c1ncc(C(=O)Nc2cc(C(F)(F)F)c(Cl)cn2)s1 [TOVORAFENIB]
5 | > 30 µM (inactive) | > 30 µM (inactive) | > 30 µM (inactive) | > 30 µM (inactive) | > 30 µM (inactive) | > 30 µM (inactive) | > 30 µM (inactive) | CN1C/C=C/CCOc2cccc(c2)-c2ccnc(n2)Nc2cccc(c2)C1 [ZOTIRACICLIB]
